Measurements reported in publication PMC3671111, “A Phase I, open-label, randomized, crossover study in three parallel groups to evaluate the effect of Rifampicin, Ketoconazole, and Omeprazole on the pharmacokinetics of THC/CBD oromucosal spray in healthy volunteers” (SpringerPlus, 2013).
“And” between values parts separate entries of the source, which are not always exact repeats. Equal entries are not always repeated. Marks after values point to notes of the source that are not given here.

Assays:
[1] = Phase I drug-drug interaction PK, Group 1: THC/CBD spray alone or with rifampicin, plasma by GC-MS; conditions: for AUC(0-inf) / AUC(0-t) / CL/F / Cmax / Kel / Varea/F / t½ / Tmax: n = 12, plasma; for AUC(0-inf) / AUC(0-t) / CL/F / Cmax / Kel / Varea/F / t½: mean (SD); for Tmax: median (range)
Procedure: (§1) Subjects received rifampicin on Days 1-9. […] Subjects received ketoconazole on Days 1-4.
(§2) Blood samples were collected at specified times and stored on ice (except rifampicin PK samples which were stored in iced water) prior to processing and storage. Plasma samples were separated by centrifugation (approximately 2500 rpm × 15 minutes at 4°C). Samples were stored in 4 mL amber glass screw top glass vials with PTFE lined screw caps labelled with Guys Drug Research (Quintiles Limited) labels. The aliquots were stored in clearly labelled containers in a freezer set at or below -20°C, until shipped for assay. Samples were shipped on dry ice at the appropriate time-points.
(§3) The assay validation was undertaken by Advanced Bioanalytical Service Laboratories (London, UK), who developed the technique after reviewing the literature, which was based on the methodology adopted by three different groups (Foltz et al. [1983]; Goodall & Basteyns [1995]; Kemp et al. [1995]), and designed with reference to FDA guidelines for industry (FDA Guidance for Industry [2012]). The method utilised protein precipitation, solvent extraction and derivatisation for the sample preparation and then sample analysis by capillary gas chromatography and detection by a mass spectrometer (GC-MS). The validation procedure investigated the calibration model with the best regression fit over the concentration range 0.1 - 100 ng/mL for CBD, THC and 11-OH-THC, as well as precision and accuracy of the method, stability, carry-over, and specificity.
(§4) Human plasma from healthy volunteers was used to prepare the standards and quality control (QC) samples, with analytes extracted using hexane/ethyl acetate (7:1 ratio), derivatised with N,O-Bis(trimethylsilyl)trifluoroacetamide. Analytic grade THC (Sigma, UK), CBD (Sigma, UK) and 11-OH-THC (Radian International and Cerillant, UK) were obtained, and three sets of CBD, THC and 11-OH-THC were used to support the study. Deuterated THC-d3 (Sigma, UK) was used as the internal standard. The GC-MS equipment was a Hewlett Packard 6890 Gas Chromatograph attached to a Hewlett Packard 5973 Mass Selective Detector. Data handling was carried out using an MS Chemstation System and the peak area ratio of the analytes to the internal standard was calculated in Excel (2000). The concentrations were calculated from the ratio data using least squares ln(y) on ln(x) regression performed in Excel (2000), and were then checked manually. Regression analysis was undertaken to find the regression model that best described the calibration data (for details, see ([Miller & Miller 1992])).
(§5) A 0.5 mL aliquot of test sample, QC or blank plasma was placed into a test tube. The blank plasma was spiked with 50 μL of the appropriate standard solution to produce the calibration standards. 50 μL of the internal standard was added to each test tube. The samples were then diluted by the addition of 500 μL of 0.1% (w/v) ascorbic acid and the protein precipitated by the addition of 1.0 mL of acetonitrile. The proteins were removed by centrifugation and the supernatant concentrated to 1 mL using nitrogen at 50 °C. The samples were then basified by the addition of 300 μL of 5M sodium hydroxide and the analytes extracted by the addition of 2.0 mL of 7:1 hexane:ethyl acetate. After mixing for 16 minutes the tubes were centrifuged and the top layer transferred into clean 3 dram vials. The solvent was removed using nitrogen at 70 °C and the dried extract resuspended in 100 μL of BSTFA and transferred to microvials, capped and placed at 70 °C for 30 minutes to derivatise the analytes. The microvials were then cooled and loaded onto the autosampler tray for analysis where 1 μL was injected onto the GC-MS system.

[2] = Phase I drug-drug interaction PK, Group 2: THC/CBD spray alone or with ketoconazole, plasma by GC-MS; conditions: for AUC(0-inf) / AUC(0-t) / CL/F / Cmax / Kel / Varea/F / t½ / Tmax: plasma; for AUC(0-inf) / AUC(0-t) / CL/F / Cmax / Kel / Varea/F / t½: mean (SD); for Tmax: median (range)
Procedure: as §1, §2, §3, §4, §5

[3] = Phase I drug-drug interaction PK, Group 3: THC/CBD spray alone or with omeprazole, plasma by GC-MS; conditions: for AUC(0-inf) / AUC(0-t) / CL/F / Cmax / Kel / Varea/F / t½ / Tmax: n = 12, plasma; for AUC(0-inf) / AUC(0-t) / CL/F / Cmax / Kel / Varea/F / t½: mean (SD); for Tmax: median (range); for Cmax and AUC % Co-efficient of Variation (CV%) range: inter-subject variability
Procedure: as §1, §2, §3, §4, §5

[4] = Rifampicin and THC/CBD spray vs THC/CBD spray alone, no-interaction range 0.80 to 1.25
[5] = THC/CBD spray 4 sprays and rifampicin 600 mg after repeated daily dosing
[6] = THC/CBD spray alone, single dose 4 sprays (10.8/10 mg), rifampicin group
[7] = THC/CBD spray co-administered with rifampicin vs alone
[8] = Ketoconazole and THC/CBD spray vs THC/CBD spray alone, no-interaction range 0.80 to 1.25
[9] = THC/CBD spray 4 sprays and ketoconazole 400 mg at end of 5-day dosing period, n = 11
[10] = THC/CBD spray alone, single dose 4 sprays (10.8/10 mg), ketoconazole group, n = 12
[11] = THC/CBD spray co-administered with ketoconazole vs alone
[12] = Omeprazole and THC/CBD spray vs THC/CBD spray alone, no-interaction range 0.80 to 1.25
[13] = THC/CBD spray 4 sprays and omeprazole 40 mg at end of 6-day dosing period
[14] = THC/CBD spray alone, single dose 4 sprays (10.8/10 mg), omeprazole group
[15] = THC/CBD spray co-administered with omeprazole vs alone

With `CCCCCc1cc(O)c2c(c1)OC(C)(C)[C@@H]1CCC(C)=C[C@@H]21` [THC, Δ9-tetrahydrocannabinol] the “Geometric mean ratio of AUC(0-inf), point estimate” value (shortened to “Geometric mean ratio of AUC(0-inf)”) [1, 4] was 0.761, the “Geometric mean ratio of AUC(0-t), point estimate” value (“Geometric mean ratio of AUC(0-t)” below) [1, 4] was 0.711 and the “Geometric mean ratio of Cmax, point estimate” value (“Geometric mean ratio of Cmax” below) [1, 4] was 0.614. The “AUC(0-inf)” value [1, 5] was 7.53 (2.99) h*ng/mL, the “AUC(0-t)” value [1, 5] was 6.53 (2.70) h*ng/mL and the CL/F [1, 5] was 1595 L/h and 1595 (473) L/h. The Cmax [1, 5] was 1.88 (1.07) ng/mL, the Kel [1, 5] was 0.189 (0.071) h^-1 and the Varea/F [1, 5] was 10297 (5888) L. The t½ [1, 5] was 4.93 (3.91) h, the Tmax [1, 5] was 1.75 (1.25-2.57) h and the “AUC(0-inf)” value [1, 6] was 9.86 (3.35)^a h*ng/mL. For the same compound, the “AUC(0-t)” value [1, 6] was 9.10 (2.98) h*ng/mL, the CL/F [1, 6] was 1207 L/h and 1207 (373)^a L/h and the Cmax [1, 6] was 2.94 (1.21) ng/mL. For the same compound, the Kel [1, 6] was 0.197 (0.093)^a h^-1, the Varea/F [1, 6] was 7625 (4326)^a L and the t½ [1, 6] was 4.68 (3.42) ^a h. The Tmax [1, 6] was 1.01 (0.50-6.02) h, the “% change in mean t1/2” value [1, 7] was “+5%” and the “% change in median Tmax” value [1, 7] was “+73%”. The “Change in mean Cmax” value ([1]; THC/CBD spray with rifampicin vs THC/CBD spray alone) was -36%, the “Change in mean CL/F” value ([1]; after multiple dose rifampicin treatment vs THC/CBD spray alone) was “+32%” and the “Geometric mean ratio of AUC(0-inf)” value [2, 8] was 1.840. For the same compound, the “Geometric mean ratio of AUC(0-t)” value [2, 8] was 1.770, the “Geometric mean ratio of Cmax” value [2, 8] was 1.252 and the “AUC(0-inf)” value [2, 9] was 16.76 (13.80) h*ng/mL. The “AUC(0-t)” value [2, 9] was 15.38 (13.43) h*ng/mL, the CL/F [2, 9] was 920 L/h and 920 (450) L/h and the Cmax [2, 9] was 3.36 (1.65) ng/mL. For the same compound, the Kel [2, 9] was 0.189 (0.078) h^-1, the Varea/F [2, 9] was 5111 (2221) L and the t½ [2, 9] was 4.43 (2.19) h. The Tmax [2, 9] was 1.75 (1.00-3.00) h, the “AUC(0-inf)” value [2, 10] was 9.22 (5.94)^a h*ng/mL and the “AUC(0-t)” value [2, 10] was 8.19 (5.67) h*ng/mL. For the same compound, the CL/F [2, 10] was 1504 L/h and 1504 (688)^a L/h, the Cmax [2, 10] was 2.65 (1.32) ng/mL and the Kel [2, 10] was 0.258 (0.092)^a h^-1. The Varea/F [2, 10] was 6328 (4164)^a L, the t½ [2, 10] was 3.07 (1.31)^a h and the Tmax [2, 10] was 1.50 (0.75-6.00) h. For the same compound, the “% change in mean Tmax” value [2, 11] was “+17%”, the “% change in t1/2” value [2, 11] was “+44%” and the “Change in mean Cmax” value ([2]; THC/CBD spray with ketoconazole vs THC/CBD spray alone) was “+27%”. The “Change in mean CL/F” value ([2]; co-administered with ketoconazole vs THC/CBD spray alone) was -39%, the “Substrate for the isoenzyme CYP3A4 (conclusion from ketoconazole interaction)” value ([2]; suggested by increased exposure with ketoconazole) was “substrates” and the “Geometric mean ratio of AUC(0-inf)” value [3, 12] was 0.962. For the same compound, the “Geometric mean ratio of AUC(0-t)” value [3, 12] was 0.964, the “Geometric mean ratio of Cmax” value [3, 12] was 1.125 and the “AUC(0-inf)” value [3, 13] was 8.10 (4.78) h*ng/mL. For the same compound, the “AUC(0-t)” value [3, 13] was 7.41 (4.75) h*ng/mL, the CL/F [3, 13] was 2284 (2520) L/h and the Cmax [3, 13] was 2.48 (1.06) ng/mL. The Kel [3, 13] was 0.357 (0.218) h^-1, the Varea/F [3, 13] was 6052 (3384) L and the t½ [3, 13] was 2.37 (0.92) h. The Tmax [3, 13] was 1.25 (1.00-1.75) h, the “AUC(0-inf)” value [3, 14] was 9.39 (8.81) h*ng/mL and the “AUC(0-t)” value [3, 14] was 8.76 (8.62) h*ng/mL. For the same compound, the CL/F [3, 14] was 2161 (1990) L/h, the Cmax [3, 14] was 2.50 (1.85) ng/mL and the Kel [3, 14] was 0.305 (0.109) h^-1. The Varea/F [3, 14] was 6889 (5296) L, the t½ [3, 14] was 2.65 (1.25) h and the Tmax [3, 14] was 1.25 (0.77-3.02) h. For the same compound, the “Plasma concentrations and PK parameters compared with THC/CBD spray alone” value ([3]; THC/CBD spray at end of 6-day omeprazole dosing) was “similar”, the “% change in Tmax” value [3, 15] was 0% and the “% change in t1/2” value [3, 15] was -11%. For the same compound, the “Differences in CL/F on co-administration with omeprazole” value ([3]; THC/CBD spray with omeprazole vs alone) was “No significant differences”, the “Substrate for the isoenzyme CYP2C19 (conclusion from omeprazole interaction)” value ([3]; at the clinically relevant dose of THC/CBD spray investigated) was “not substrates” and the “Cmax and AUC % Co-efficient of Variation (CV%) range” value ([3]; THC/CBD spray alone, omeprazole group) was 74-98%. For the same compound, the “Cmax and AUC % Co-efficient of Variation (CV%) range” value ([3]; THC/CBD spray in combination with omeprazole) was 43-64%.
